≈ marks a conversion by molar mass, not a printed value. Read-outs that look alike come from different tables or passages of the source. Positions of bridges follow the written chain, without caps; N, C: chain ends. Non-standard residues stand in square brackets, D forms with d. Residues, ends and D or L forms follow the SMILES beside them. *: point of attachment. Benzoyl(4-Ph) = O=C(c1ccc(-c2ccccc2)cc1)*; Dab = NCC[C@H](N)C(=O)O; Butyryl = CCCC(=O)*
Tests used:
E. cloacae 117029 = format: cell-based, Enterobacter cloacae
Text: (§1) Bacterial strains were either obtained from the American Type Culture Collection (ATCC), Canadian National Intensive Care Unit (CAN-ICU) surveillance study or the Canadian Ward Surveillance (CANWARD) study. Strains from both CAN-ICU and CANWARD are isolates recovered from patients diagnosed with a presumed infectious disease that were admitted in a participating medical center across Canada. Efflux-deficient strain PAO200 (lacking MexAB-OprM efflux system) and PA0750 (lacking MexAB-OprM, MexCD-OprJ, MexEF-OprN, MexJK and MexXY efflux systems, and the outer membrane protein OpmH) were kindly gifted by Dr. Ayush Kumar (University of Manitoba).
(§2) The in vitro antibacterial activity of the compounds studied were assessed by broth microdilution susceptibility testing following CLSI guidelines. Bacterial cultures were grown overnight prior to the assay. The overnight grown cultures were diluted in saline to 0.5 McFarland turbidity, followed by 1:50 dilution in Mueller-Hinton broth (MHB) for inoculation to a final concentration of approximately 5×10^5 colony forming units/mL. Testing was performed on 96-well plates where the tested compounds were 2-fold serially diluted in MHB and incubated with equal volumes of bacterial inoculum at 37° C. for 18 h. […] Wells containing MHB with or without bacterial cells were used as positive or negative control, respectively.

MSSE CANWARD-2008 81388 = format: cell-based, Staphylococcus epidermidis; conditions: for MIC: MSSE CANWARD-2008 81388 (methicillin-susceptible Staphylococcus epidermidis)
Text: as §1, §2

P. aeruginosa 114228 = format: cell-based, Pseudomonas aeruginosa; conditions: 114228
Experimental: (§3) We then addressed the possibility for the dilipid polymyxins to display enhanced antibacterial activity against colistin-resistant Gram-negative pathogens. […] The extended hydrophobic region of the dilipid polymyxin may provide additional hydrophobic interactions to the outer membrane of colistin-resistant organisms. Eight MDR colistin-resistant Gram-negative bacterial isolates were tested, including two E. coli isolates harboring the mcr-1 plasmid-encoded polymyxin resistance gene. We found no difference between the antibacterial activity of dilipid polymyxins and colistin against colistin-resistant Gram-negative bacteria (Table 3).
as §1, §2

P. aeruginosa 91433 = format: cell-based, Pseudomonas aeruginosa; conditions: 91433
Experimental: as §3, §1, §2

P. aeruginosa 101243 = format: cell-based, Pseudomonas aeruginosa; conditions: 101243
Experimental: as §3, §1, §2

E. coli 94393 = format: cell-based, Escherichia coli; conditions: 94393
Experimental: as §3, §1, §2

E. coli 94474 = format: cell-based, Escherichia coli; conditions: 94474
Experimental: as §3, §1, §2

[1] = system: S. maltophilia CAN-ICU 62584; format: cell-based, Stenotrophomonas maltophilia; conditions: S. maltophilia CAN-ICU 62584
Text: as §1, §2

A. baumannii 92247 = format: cell-based, Acinetobacter baumannii; conditions: 92247
Experimental: as §3, §1, §2

K. pneumoniae 113250 = format: cell-based, Klebsiella pneumoniae; conditions: 113250
Experimental: as §3, §1, §2

K. pneumoniae 113254 = format: cell-based, Klebsiella pneumoniae; conditions: 113254
Experimental: as §3, §1, §2

P. aeruginosa PAO750 = conditions: P. aeruginosa PAO750, efflux-deficient strain that lacks five pumps and OpmH
Text: (§4) To our curiosity, we explored whether efflux can affect the activity of polymyxins. It is widely accepted that polymyxins disrupt Gram-negative bacterial membranes that result to intracellular component leakage and bacterial cell death. However, for this to occur requires the agent to reach the periplasmic space to interact and disrupt the inner membrane. Active efflux may potentially expel polymyxins out of the periplasm, effectively reducing its periplasmic and intracellular concentrations. To study the effect of efflux on polymyxins in Gram-negative pathogens, we used P. aeruginosa as they inherently overexpress efflux systems such as MexAB-OprM, MexCD-OprJ and MexXY-OprM. Moreover, antibiotic substrates for these efflux systems are mostly characterized. We evaluated and compared the activity of the dilipid polymyxins, colistin and PMBN against wild-type PAO1 and two efflux-deficient P. aeruginosa isogenic mutants (Table 5). The strain PAO200 lacks the MexAB-OprM efflux system while strain PAO750 lacks five clinically-relevant pumps (MexAB-OprM, MexCD-OprJ, MexEF-OprN, MexJK and MexXY) and outer membrane protein OpmH.
as §1, §2

P. aeruginosa PAO200 = conditions: for MIC: P. aeruginosa PAO200, efflux-deficient strain that lacks the MexAB-OprM pump
Text: as §4, §1, §2

A. baumannii AB031 = format: cell-based, Acinetobacter baumannii; conditions: A. baumannii AB031
Text: as §1, §2

A. baumannii LAC-4 = format: cell-based, Acinetobacter baumannii
Text: as §1, §2

A. baumannii AB027 = format: cell-based, Acinetobacter baumannii; conditions: A. baumannii AB027
Text: as §1, §2

[2] = system: A. baumannii CAN-ICU 63169; format: cell-based, Acinetobacter baumannii; conditions: A. baumannii CAN-ICU 63169
Text: as §1, §2

A. baumannii ATCC 17978 = format: cell-based, Acinetobacter baumannii; conditions: A. baumannii ATCC 17978
Text: as §1, §2

A. baumannii 110193 = format: cell-based, Acinetobacter baumannii; conditions: A. baumannii 110193
Text: as §1, §2

MRSE CAN-ICU 61589 = format: cell-based, S. epidermidis; conditions: MRSE CAN-ICU 61589 (methicillin-resistant S. epidermidis)
Text: as §1, §2

E. coli CAN-ICU 61714 = format: cell-based, Escherichia coli; conditions: E. coli CAN-ICU 61714
Text: as §1, §2

E. coli ATCC 25922 = format: cell-based, Escherichia coli; conditions: E. coli ATCC 25922
Text: as §1, §2

E. coli CAN-ICU 63074 = format: cell-based, Escherichia coli; conditions: E. coli CAN-ICU 63074
Text: as §1, §2

E. coli 107115 = format: cell-based, Escherichia coli
Text: as §1, §2

`CCCC(=O)NCC[C@H](NC(=O)CCC)C(=O)N[C@H](C(=O)N[C@@H](CCN)C(=O)N[C@H]1CCNC(=O)[C@H]([C@@H](C)O)NC(=O)[C@H](CCN)NC(=O)[C@H](CCN)NC(=O)[C@H](CC(C)C)NC(=O)[C@@H](Cc2ccccc2)NC(=O)[C@H](CCN)NC1=O)[C@@H](C)O` [Compound 1, Dibutyric Acid (Di-C4) Polymyxin] (Butyryl-[Dab](Butyryl)T[Dab][Dab][Dab][dF]L[Dab][Dab]T; lactam 4-C) was tested. Which MIC (E. cloacae 117029; 117029) did it give?
The MIC was 64 mg/L (≈ 53.2 µM).

And the MIC (MSSE CANWARD-2008 81388)?
Its MIC is greater than 128 mg/L.

What about the MIC (P. aeruginosa 114228) of the same compound?
The MIC was greater than 128 mg/L.

And the MIC (P. aeruginosa 91433)?
Its MIC is greater than 128 mg/L.

What about the MIC (P. aeruginosa 101243) of the same compound?
The MIC was greater than 128 mg/L.

And the MIC (E. coli 94393)?
Its MIC is greater than 64 mg/L.

And the MIC (E. coli 94474)?
The MIC was greater than 64 mg/L.

What about the MIC [1] of the same compound?
Its MIC is greater than 128 mg/L.

What about the MIC (A. baumannii 92247) of the same compound?
Its MIC is greater than 64 mg/L.

What about the MIC (K. pneumoniae 113250) of the same compound?
Its MIC is greater than 64 mg/L.

What about the MIC (K. pneumoniae 113254) of the same compound?
Its MIC is greater than 64 mg/L.

And the MIC (P. aeruginosa PAO750)?
The MIC was 8 mg/L (≈ 6.65 µM).

What about the MIC (P. aeruginosa PAO200) of the same compound?
Its MIC is 4 mg/L (≈ 3.32 µM).

What about the “fold difference in MIC against wild-type PAO1 and efflux-deficient PAO200” value (P. aeruginosa PAO200; PAO1 versus PAO200 (lacks MexAB-OprM)) of the same compound?
Its value is 32 fold.

What about the MIC (A. baumannii AB031) of the same compound?
The MIC was greater than 128 mg/L.

What about the MIC (A. baumannii LAC-4; LAC-4) of the same compound?
The MIC was 128 mg/L (≈ 106 µM).

And the MIC (A. baumannii AB027)?
Its MIC is greater than 128 mg/L.

What about the MIC [2] of the same compound?
Its MIC is greater than 128 mg/L.

What about the MIC (A. baumannii ATCC 17978) of the same compound?
Its MIC is greater than 128 mg/L.

What about the MIC (A. baumannii 110193) of the same compound?
The MIC was greater than 128 mg/L.

And the MIC (MRSE CAN-ICU 61589)?
Its MIC is greater than 128 mg/L.

What about the MIC (E. coli CAN-ICU 61714) of the same compound?
Its MIC is greater than 128 mg/L.

What about the MIC (E. coli ATCC 25922) of the same compound?
Its MIC is greater than 128 mg/L.

And the MIC (E. coli CAN-ICU 63074)?
The MIC was greater than 128 mg/L.

And the MIC (E. coli 107115; 107115)?
The MIC was 128 mg/L (≈ 106 µM).

How did the MIC (E. cloacae 117029; E. cloacae 117029) turn out when `CC(C)C[C@@H]1NC(=O)[C@@H](Cc2ccccc2)NC(=O)[C@H](CCN)NC(=O)[C@@H](NC(=O)[C@H](CCN)NC(=O)[C@@H](NC(=O)[C@H](CCNC(=O)c2ccc(-c3ccccc3)cc2)NC(=O)c2ccc(-c3ccccc3)cc2)[C@@H](C)O)CCNC(=O)[C@H]([C@@H](C)O)NC(=O)[C@H](CCN)NC(=O)[C@H](CCN)NC1=O` [Compound 5, Dibiphenyl-4-Carboxylic Acid (Di-Biphenyl) Polymyxin] ({Benzoyl(4-Ph)}-[Dab](Benzoyl(4-Ph))T[Dab][Dab][Dab][dF]L[Dab][Dab]T; lactam 4-C) was run?
Its MIC is 8 mg/L (≈ 5.62 µM).

And the MIC (MSSE CANWARD-2008 81388)?
The MIC was 8 mg/L (≈ 5.62 µM).

And the “fold better MIC than colistin” value (MSSE CANWARD-2008 81388; methicillin-susceptible Staphylococcus epidermidis)?
Its value is 32 fold.

What about the MIC (P. aeruginosa 114228) of the same compound?
Its MIC is 16 mg/L (≈ 11.2 µM).

And the MIC (P. aeruginosa 91433)?
Its MIC is 8 mg/L (≈ 5.62 µM).

What about the MIC (P. aeruginosa 101243) of the same compound?
The MIC was greater than 128 mg/L.

And the MIC (E. coli 94393)?
The MIC was 16 mg/L (≈ 11.2 µM).

What about the MIC (E. coli 94474) of the same compound?
The MIC was 8 mg/L (≈ 5.62 µM).

What about the MIC [1] of the same compound?
Its MIC is 64 mg/L (≈ 45 µM).

What about the MIC (A. baumannii 92247) of the same compound?
The MIC was 8 mg/L (≈ 5.62 µM).

And the MIC (K. pneumoniae 113250)?
Its MIC is greater than 64 mg/L.

And the MIC (K. pneumoniae 113254)?
Its MIC is greater than 64 mg/L.

And the MIC (P. aeruginosa PAO750)?
Its MIC is 4 mg/L (≈ 2.81 µM).

What about the MIC (P. aeruginosa PAO200) of the same compound?
Its MIC is 4 mg/L (≈ 2.81 µM).

And the MIC (A. baumannii AB031)?
Its MIC is 8 mg/L (≈ 5.62 µM).

What about the MIC (A. baumannii LAC-4; A. baumannii LAC-4) of the same compound?
Its MIC is 16 mg/L (≈ 11.2 µM).

And the MIC (A. baumannii AB027)?
Its MIC is 6 mg/L (≈ 4.21 µM).

And the MIC [2]?
The MIC was 64 mg/L (≈ 45 µM).

What about the MIC (A. baumannii ATCC 17978) of the same compound?
Its MIC is 16 mg/L (≈ 11.2 µM).

What about the MIC (A. baumannii 110193) of the same compound?
Its MIC is 16 mg/L (≈ 11.2 µM).

What about the MIC (MRSE CAN-ICU 61589) of the same compound?
The MIC was 8 mg/L (≈ 5.62 µM).

What about the MIC (E. coli CAN-ICU 61714) of the same compound?
Its MIC is 32 mg/L (≈ 22.5 µM).

What about the MIC (E. coli ATCC 25922) of the same compound?
Its MIC is 8 mg/L (≈ 5.62 µM).

What about the MIC (E. coli CAN-ICU 63074) of the same compound?
Its MIC is 32 mg/L (≈ 22.5 µM).

And the MIC (E. coli 107115; E. coli 107115)?
The MIC was 4 mg/L (≈ 2.81 µM).

Reference: patent US20210261621A1, “Preparation of Dilipid Polymixins and Use Thereof as Antimicrobial Adjuvants” (priority 2018, published 2021)
